In US20020068360A1, “Cyclohexanediol cryoprotectant compounds” (priority 2000, published 2002):

System: AV5 cells
Experiment: Cell viability (Alamar Blue) of AV5 cells after cryopreservation and warming
Type: cell-based, porcine
Conditions: 0 to 1 M CHD added to 1 M DMSO or to DMSO/formamide/propanediol (final 1 M), normalized to conventional cryoprotectant alone, FIGS. 2 and 3
Protocol: A primary cell strain called AV5 was used for these experiments. AV5 cells are derived from porcine heart valve leaflets. Hearts were obtained from pigs and the heart valve leaflets were then removed and washed several times with sterile phosphate-buffered saline (PBS). Small pieces (˜1 mm^2) were cut and placed into a 24-well microtiter plate coated with 0.2% gelatin. Dulbecco's Modified Eagle's Medium (DMEM) with 10% fetal calf serum (FCS) was added to just cover the bottom of the well and the plate was left at 37° C. with 5% CO2 in air until visible outgrowth occurred. […]
Cell viability was then determined using the non-invasive metabolic indicator Alamar Blue (Trek Diagnostics). […] Fluorescence from Alamar Blue was read in a fluorescent microplate reader (Fmax fluorescent microplate reader by […]) using an excitation wavelength of 544 nm and an emission wavelength of 590 nm.
The first set of experiments involved using two CPA compositions, either 1 M dimethyl sulfoxide (DMSO) (left bar of graph at each concentration of 1,3CHD in FIG. 2 and 1,4CHD in FIG. 3) or a combination of DMSO, formamide and propanediol at a final concentration of 1 M (right bar of graph at each concentration of 1,3CHD in FIG. 2 and 1,4CHD in FIG. 3). […] Cell viability was assessed using the assay described above. […]

OC1CCCC(O)C1 (centres unmarked) [1,3CHD, 1,3-cyclohexanediol]
relative cell viability after freezing: significantly increased

OC1CCC(O)CC1 (centres unmarked) [1,4CHD, 1,4-cyclohexanediol]
relative cell viability after freezing: significantly increased
